Laboratory results: PubChem BioAssay (NCI)
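Briefly, cells in 96-well plates were exposed to five compound concentrations for 48 h, and endpoints were estimated by linear interpolation. GI50 = concentration required for 50% inhibition of growth. Definition used: TGI = concentration required for complete inhibition of growth.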

Legend:
Assay in all cases: NCI-60 cell line screen, 48 h
[1] = tested on: ACHN renal
[2] = tested on: NCI-H522 lung
[3] = tested on: CAKI-1 renal
[4] = tested on: HCC-2998 colon
[5] = tested on: OVCAR-4 ovarian
[6] = tested on: NCI-H460 lung
[7] = tested on: HCT-116 colon
[8] = tested on: MDA-MB-435
[9] = tested on: MOLT-4 leukemia
[10] = tested on: M14 melanoma

| SMILES | GI50 [1] [µM] | TGI [1] [µM] | GI50 [2] [µM] | TGI [2] [µM] | GI50 [3] [µM] | TGI [3] [µM] | GI50 [4] [µM] | TGI [4] [µM] | GI50 [5] [µM] | TGI [5] [µM] | GI50 [6] [µM] | TGI [6] [µM] | GI50 [7] [µM] | TGI [7] [µM] | GI50 [8] [µM] | TGI [8] [µM] | GI50 [9] [µM] | TGI [9] [µM] | GI50 [10] [µM] | TGI [10] [µM] |
| --- | --- | --- | --- | --- | --- | --- | --- | --- | --- | --- | --- | --- | --- | --- | --- | --- | --- | --- | --- | --- |
| CCC(c1ccc(OC)cc1)C(CC)c1ccc(O)c(CN2CCN(C)CC2)c1 (stereo not given) | 9.99 | 22.9 | 4.74 | 17 | 2.61 | 10.6 | 2.15 | 4.62 | 7.22 | 22.4 | 3.04 | 8.2 | 3.46 | 14.5 | 2.72 | 9.4 | 6.01 | 20.4 | 1.99 | 3.8 |
| O=C(CN1CCN(c2cc3c(cc2F)c(=O)c(C(=O)O)cn3C2CC2)CC1)Nc1nc(-c2ccc(Cl)cc2)cs1 | 3.05 | > 100 | 3.15 | 30.4 | 3.57 | > 100 | 5.17 | > 100 | 6.64 | 98.8 | 3.03 | 12.7 | 3.37 | > 100 | 3.85 | 94 | 3.31 | > 100 | 4.54 | 28.6 |
| Brc1ccc2[nH]cc(-c3nc(-c4c[nH]c5ncccc45)cs3)c2c1 | 2.66 | 12.9 | 3.53 | 10.8 | 1.67 | 10.5 | 3.59 | 15.7 | 3.31 | 20.8 | 3.12 | 10.9 | 3.09 | 12.2 | 4.04 | 15.8 | 2.97 | 35.6 | 2.7 | 8.6 |
| Cc1ccc(-c2c3c(nn2-c2ccc(S(N)(=O)=O)cc2)-c2ccccc2C3)cc1 | 19.8 | 35.8 | 11.5 | 27.6 | 17.7 | 32.6 | 8.54 | 25.8 | 15.4 | 32.8 | 19.1 | 43.7 | 11 | 24.2 | 18.2 | 34.7 | 10.8 | 42.7 | 19.2 | 37.6 |
| Cc1cc2cc3ccc(N(C)C)cc3nc2cc1N | 0.423 | 5.75 | 0.612 | 2.4 | 0.321 | 1.35 | 0.33 | 1.34 | 0.904 | 4.46 | 0.234 | 0.68 | 0.279 | 1.45 | 0.703 | 2.28 | 0.438 | 9.31 | 0.682 | 2.14 |
| O=C(O)C1CC2(C1)CC(C(=O)O)C2 (stereo not given) | – | > 100 | – | > 100 | – | > 100 | – | > 100 | – | > 100 | – | > 100 | – | > 100 | – | > 100 | – | > 100 | – | > 100 |
